In US12233177B2, “Method for external sterilization of drug delivery device” (AMGEN INC., priority 2019, dated 2025):

System: Geobacillus stearothermophilus
Test: Lethality study of NO2 external sterilization on spiked pre-filled syringes
Format: cell-based
Procedure: At least some of the backstops illustrated in the figures were tested in a lethality study. For example, pre-filled syringes were “spiked” with between 1×10^6 and 6×10^6 CFU (e.g., between 1,000,000 and 6,000,000 CFU) of Geobacillus stearothermophilus before sterilization cycles. As a more specific example, the backstop and barrel portions of the prefilled syringes were spiked with the 1-6×10^6 CFU of Geobacillus stearothermophilus. As used herein, the term “CFU” refers to “Colony-Forming Unit”, which is a unit used to estimate the number of viable bacteria or fungal cells in a sample (where “viable” is the ability to multiply via binary fission under controlled conditions). Geobacillus stearothermophilus (previously Bacillus stearothermophilus) is a rod-shaped, gram-positive bacterium and a member of the division Firmicutes. The bacterium is a thermophile and is widely distributed in soil, hot springs, ocean sediment, and is a potential cause of spoilage in food products. The spiked pre-filled syringes were then sterilized using various sterilization parameters to measure the lethality of the sterilization process to evaluate the Sterility Assurance Level (SAL). The pre-filled syringes were spiked with biological indicators or direct inoculation, as is discussed in more detail below.
For each recipe number, five samples (or at least 5 test locations on one or more samples) were tested. […] For example, the target lethality for this test was a Sterility Assurance Level (SAL) of […]. In other words, the target lethality for this test was 6 logs reduction in the number of bacteria present (before sterilization vs. after sterilization). As a more specific example, for Recipe Number 1, one of the five samples tested reached this target lethality for the backstop area (Col. “Spiked Backstop”, row corresponding with Recipe Number 1), but all five of the samples tested reached this target lethality for the barrel area (Col. “Spiked Barrel”, row corresponding with Recipe Number 1). It should be noted that the spiked backstop test results for Recipe Nos. 1-4 (utilizing the backstop 20 shown in FIGS. 2A-2H) were tested via direct inoculation whereas the spiked backstop test results for Recipe Nos. 5-14 (utilizing alternative backstop 120) were tested via biological indicators. It also should be noted that “-” symbols indicate that no data is reported for those parameters/samples. The testing method variance aside, the samples tested utilizing backstops with protrusions achieved target lethality at a much higher rate than the samples utilizing the backstop without protrusions. As discussed above, the ridges minimize and/or prevent occluded spaces and instead permit the sterilization agent to completely or substantially reach various components of the pre-filled syringe, particularly the backstop and flange areas.

Question: `[O]N=O` [NO2, Nitrogen Dioxide] was tested. Which “Spiked Barrel: samples out of 5 reaching target lethality (6 logs reduction)” value (“Spiked Barrel: samples out … (6 logs reduction)” below) (Recipe 1: 100 Torr, NO2 10 mg/L, 75% RH, dwell 10 min, 2 pulses, 24 aerations, PFS with backstop 20) did it give?
Answer: 5/5

Question: And the “Spiked Backstop: samples out of 5 reaching target lethality (6 logs reduction)” value (shortened to “Spiked Backstop … (6 logs reduction)”) (Recipe 1: 100 Torr, NO2 10 mg/L, 75% RH, dwell 10 min, 2 pulses, 24 aerations, backstop 20, direct inoculation)?
Answer: 1/5

Question: What about the “Spiked Barrel: samples out … (6 logs reduction)” value (Recipe 2: 300 Torr, NO2 10 mg/L, 75% RH, dwell 10 min, 2 pulses, 35 aerations, PFS with backstop 20) of the same molecule?
Answer: 5/5

Question: What about the “Spiked Backstop … (6 logs reduction)” value (Recipe 2: 300 Torr, NO2 10 mg/L, 75% RH, dwell 10 min, 2 pulses, 35 aerations, backstop 20, direct inoculation) of the same molecule?
Answer: 0/5

Question: What about the “Spiked Barrel: samples out … (6 logs reduction)” value (Recipe 3: 100 Torr, NO2 20 mg/L, 80% RH, dwell 20 min, 4 pulses, 24 aerations, PFS with backstop 20) of the same molecule?
Answer: 5/5

Question: And the “Spiked Backstop … (6 logs reduction)” value (Recipe 3: 100 Torr, NO2 20 mg/L, 80% RH, dwell 20 min, 4 pulses, 24 aerations, backstop 20, direct inoculation)?
Answer: 0/5

Question: And the “Spiked Barrel: samples out … (6 logs reduction)” value (Recipe 4: 20 Torr, NO2 10 mg/L, 80% RH, dwell 10 min, 4 pulses, 35 aerations, PFS with backstop 20)?
Answer: 5/5

Question: And the “Spiked Backstop … (6 logs reduction)” value (Recipe 4: 20 Torr, NO2 10 mg/L, 80% RH, dwell 10 min, 4 pulses, 35 aerations, backstop 20, direct inoculation)?
Answer: 2/5

Question: What about the “Spiked Barrel: samples out … (6 logs reduction)” value (Recipe 5: 20 Torr, NO2 10 mg/L, 75% RH, dwell 10 min, 8 pulses, 28 aerations, PFS with alternative backstops) of the same molecule?
Answer: 5/5

Question: What about the “Spiked Backstop … (6 logs reduction)” value (Recipe 5: 20 Torr, NO2 10 mg/L, 75% RH, dwell 10 min, 8 pulses, 28 aerations, alternative backstops, biological indicators) of the same molecule?
Answer: 5/5

Question: What about the “Spiked Backstop … (6 logs reduction)” value (Recipe 6: 20 Torr, NO2 20 mg/L, 80% RH, dwell 20 min, 4 pulses, 24 aerations, alternative backstops, biological indicators) of the same molecule?
Answer: 5/5

Question: What about the “Spiked Backstop … (6 logs reduction)” value (Recipe 7: 20 Torr, NO2 10 mg/L, 80% RH, dwell 20 min, 4 pulses, 24 aerations, alternative backstops, biological indicators) of the same molecule?
Answer: 5/5

Question: What about the “Spiked Backstop … (6 logs reduction)” value (Recipe 8: 20 Torr, NO2 10 mg/L, 80% RH, dwell 10 min, 4 pulses, 24 aerations, alternative backstops, biological indicators) of the same molecule?
Answer: 5/5

Question: And the “Spiked Backstop … (6 logs reduction)” value (Recipe 9: 20 Torr, NO2 10 mg/L, 80% RH, dwell 10 min, 2 pulses, 24 aerations, alternative backstops, biological indicators)?
Answer: 5/5

Question: What about the “Spiked Barrel: samples out … (6 logs reduction)” value (Recipe 10: 20 Torr, NO2 10 mg/L, 80% RH, dwell 10 min, 1 pulse, 24 aerations, PFS with alternative backstops) of the same molecule?
Answer: 5/5

Question: And the “Spiked Backstop … (6 logs reduction)” value (Recipe 10: 20 Torr, NO2 10 mg/L, 80% RH, dwell 10 min, 1 pulse, 24 aerations, alternative backstops, biological indicators)?
Answer: 5/5

Question: What about the “Spiked Barrel: samples out … (6 logs reduction)” value (Recipe 11: 20 Torr, NO2 5 mg/L, 80% RH, dwell 10 min, 1 pulse, 24 aerations, PFS with alternative backstops) of the same molecule?
Answer: 4/5

Question: And the “Spiked Backstop … (6 logs reduction)” value (Recipe 11: 20 Torr, NO2 5 mg/L, 80% RH, dwell 10 min, 1 pulse, 24 aerations, alternative backstops, biological indicators)?
Answer: 5/5

Question: And the “Spiked Barrel: samples out … (6 logs reduction)” value (Recipe 12: 20 Torr, NO2 5 mg/L, 80% RH, dwell 10 min, 2 pulses, 24 aerations, PFS with alternative backstops)?
Answer: 5/5

Question: What about the “Spiked Backstop … (6 logs reduction)” value (Recipe 12: 20 Torr, NO2 5 mg/L, 80% RH, dwell 10 min, 2 pulses, 24 aerations, alternative backstops, biological indicators) of the same molecule?
Answer: 5/5

Question: And the “Spiked Barrel: samples out … (6 logs reduction)” value (Recipe 13: 20 Torr, NO2 5 mg/L, 80% RH, dwell 5 min, 2 pulses, 24 aerations, PFS with alternative backstops)?
Answer: 5/5

Question: What about the “Spiked Backstop … (6 logs reduction)” value (Recipe 13: 20 Torr, NO2 5 mg/L, 80% RH, dwell 5 min, 2 pulses, 24 aerations, alternative backstops, biological indicators) of the same molecule?
Answer: 5/5

Question: And the “Spiked Barrel: samples out … (6 logs reduction)” value (Recipe 15: 500 Torr, NO2 5 mg/L, 80% RH, dwell 5 min, 2 pulses, 70 aerations, PFS with alternative backstops)?
Answer: 5/5

Question: And the “Spiked Backstop … (6 logs reduction)” value (Recipe 15: 500 Torr, NO2 5 mg/L, 80% RH, dwell 5 min, 2 pulses, 70 aerations, alternative backstops, biological indicators)?
Answer: 5/5
